From PMC12751015, “Evaluation of Bifunctional, PSMA-Targeted Triazamacrocycle-Picolinates Compatible with the ^18F/^44Sc/^177Lu Isotope Triad” (Journal of Medicinal Chemistry, 2025)

Legend:
PSMA + tumor = conditions: 2 h p.i., clinically employed agents; ref not printed (Table S11); cited from earlier work
[1] = pH-dependent speciation of ScF complexes by 1H and 45Sc NMR (HypNMR2008 fit); type: physicochemical; conditions: Sc3+ complexes, determined by HypNMR2008
From the text: To establish optimal parameters for the formation of ScF ternary complexes, we determined the pH-dependent speciation of ScF complexes with H 3 mpatcn and H 2 mpatcn-am-Bz using ^1H and ^45Sc NMR spectroscopy in accordance with previous methods established for the formation of lanthanide-fluoride complexes (Supporting Information, Section S3). […] Above pH 10, the [Sc(L)-OH] species becomes most favorable, effectively outcompeting the F^– ligand at increasing concentration. Low pH conditions led to the presence of protonated species [Sc(mpatcn)-H]^+, which competes with inner sphere fluorination. […] For both ligands, no statistically significant differences for pH dependence were observed, with the % of [ScF(L)] species remaining constant between pH 3 and 8 (Table ).

Row | logßML [1] | logßMLF [1] | logßMLOH [1] | logßMLH [1] | Structure (SMILES) | tumor to blood ratio (PSMA + tumor)
1 | – | – | – | – | O=C(O)CC[C@H](NC(=O)N[C@@H](CCCCNC(=O)c1ccc(F)nc1)C(=O)O)C(=O)O [Pylarify] | 1220 ± 431
2 | 23.2 | 27.8 | 13.7 | – | CN(Cc1ccccc1)C(=O)CN1CCN(CC(=O)O)CCN(Cc2cccc(C(=O)O)n2)CC1 [mpatcn-am-Bz] | –
3 | 23 | 27.7 | 14.2 | 24.9 | O=C(O)CN1CCN(CC(=O)O)CCN(Cc2cccc(C(=O)O)n2)CC1 [mpatcn] | –
